Reference: patent US6440903B1, “Substituted 2,4-diamino-1,3,5-triazines as herbicides” (Bayer Aktiengesellschaft, priority 1996, dated 2002)

How the values were obtained:
[1] = tested on: weeds; assay: Post-emergence test (summary in text); type: in vivo; details: result in words
Experimental: (§1) Solvent: 5 parts by weight of acetone
(§2) Emulsifier: 1 part by weight of alkylaryl polyglycol ether
(§3) To produce a suitable preparation of active compound, 1 part by weight of active compound is mixed with the stated amount of solvent, the stated amount of emulsifier is added and the concentrate is diluted with water to the desired concentration.
Test plants which have a height of 5-15 cm are sprayed with the preparation of active compound such that the particular amounts of active compounds desired are applied per unit area. The concentration of the spray liquor is chosen so that the particular amounts of active compound desired are applied in 1000 l of water/ha.
After three weeks, the degree of damage to the plants is scored visually in % damage in comparison to the untreated control.
(§4) 0%=no effect (like untreated control)

[2] = tested on: weeds; assay: Pre-emergence test (summary in text); type: in vivo; details: result in words
Experimental: as §1, §2, §3
Seeds of the test plants are sown in normal soil. After about 24 hours, the soil is watered with the preparation of active compound. The amount of water per unit area is advantageously kept constant. The concentration of active compound in the preparation is immaterial, only the application rate of active compound per unit area matters.
After three weeks, the degree of damage to the plants is scored visually in % damage in comparison to the development of the untreated control.
as §4

[3] = tested on: Abutilon; assay: Post-emergence test; type: in vivo; details: greenhouse, 1000 g of ai./ha, scored after three weeks
Experimental: (§5) Post-emergence Test Solvent: 5 parts by weight of acetone Emulsifier: 1 part by weight of alkylaryl polyglycol ether To produce a suitable preparation of active compound, 1 part by weight of active compound is mixed with the stated amount of solvent, the stated amount of emulsifier is added and the concentrate is diluted with water to the desired concentration. Test plants which have a height of 5-15 cm are sprayed with the preparation of active compound such that the particular amounts of active compounds desired are applied per unit area. The concentration of the spray liquor is chosen so that the particular amounts of active compound desired are applied in 1000 l of water/ha. After three weeks, the degree of damage to the plants is scored visually in % damage in comparison to the untreated control. The Figures Denote: 0%=no effect (like untreated control) 100%=total destruction

[4] = tested on: Alopecurus; assay: Post-emergence test; type: in vivo; details: greenhouse, 1000 g of ai./ha, scored after three weeks
Experimental: as §5

[5] = tested on: Amaranthus; assay: Post-emergence test; type: in vivo; details: greenhouse, 1000 g of ai./ha, scored after three weeks; for pest or weed control at 1000 g/ha: Amaranthus, 504 h, read-out: % damage, Amaranthus
Experimental: as §5

[6] = tested on: Avena fatua; assay: Post-emergence test; type: in vivo; details: greenhouse, 1000 g of ai./ha, scored after three weeks
Experimental: as §5

[7] = tested on: Setaria; assay: Post-emergence test; type: in vivo; details: greenhouse, 1000 g of ai./ha, scored after three weeks; for pest or weed control at 1000 g/ha: Setaria, 504 h, read-out: % damage, Setaria
Experimental: as §5

[8] = tested on: Sinapis; assay: Post-emergence test; type: in vivo; details: greenhouse, 1000 g of ai./ha, scored after three weeks
Experimental: as §5

[9] = tested on: Galium; assay: Post-emergence test; type: in vivo; details: greenhouse, 1000 g of ai./ha, scored after three weeks
Experimental: as §5

[10] = tested on: Maize; assay: Post-emergence test; type: in vivo; details: greenhouse, 1000 g of ai./ha, scored after three weeks
Experimental: as §5

| Structure (SMILES) | activity against weeds [1] | melting point [°C] | other results |
| --- | --- | --- | --- |
| CC(=O)Nc1nc(NC(C)c2ccc(Cl)cc2)nc(C(C)Cl)n1 (stereo not drawn) [Example 177] | strong activity | 110 | – |
| COCc1nc(NC(C)=O)nc(NC(C)c2ccc(SC)cc2)n1 (stereo not drawn) [Example 103] | strong activity | 141 | – |
| CC(Nc1nc(N)nc(C(Cl)Cl)n1)c1ccc(Cl)cc1 (stereo not drawn) [Example 168] | strong activity | 133 | – |
| COc1ccc(C(C)Nc2nc(NC(C)=O)nc(C(F)(F)F)n2)cc1 (stereo not drawn) [Example 82] | strong activity | 130 | – |
| CCC(Nc1nc(N)nc(C(F)(F)F)n1)c1ccc(Cl)cc1 (stereo not drawn) [Example 85] | strong activity | 145 | – |
| COCc1nc(NC(C)=O)nc(NC(C)c2ccc(Cl)cc2)n1 (stereo not drawn) [Example 178] | strong activity | 155 | – |
| CC(=O)Nc1nc(NC(C)c2ccc(Cl)cc2)nc(C(Cl)Cl)n1 (stereo not drawn) [Example 145] | strong activity | 132 | – |
| CC(Nc1nc(N)nc(C(Cl)Cl)n1)c1ccc(Cl)cc1 (stereo not drawn) [Example 149] | – | 152 | activity against weeds [2]: strong activity |
| COCc1nc(N)nc(NC(C)c2ccc(Cl)cc2)n1 (stereo not drawn) [Example 98] | strong activity | 149 | – |
| CC(=O)Nc1nc(NC(C)c2ccc(Cl)cc2)nc(C(C)Cl)n1 (stereo not drawn) [Example 146] | strong activity | 126 | – |
| CC(Nc1nc(N)nc(C(F)(F)F)n1)c1ccc(Cl)cc1 (stereo not drawn) [drawing 109] | – | – | % damage, Abutilon [3]: 100%; % damage, Alopecurus [4]: 100%; pest or weed control at 1000 g/ha [5]: 100%; % damage, Avena fatua [6]: 100%; pest or weed control at 1000 g/ha [7]: 100%; % damage, Sinapis [8]: 100% |
| CC(=O)Nc1nc(NC(C)c2ccc(Cl)cc2)nc(C(Cl)Cl)n1 (stereo not drawn) [drawing 148] | – | – | pest or weed control at 1000 g/ha [5]: 100%; % damage, Avena fatua [6]: 70%; % damage, Galium [9]: 70%; pest or weed control at 1000 g/ha [7]: 100% |
| CSc1ccc(C(C)Nc2nc(N)nc(C(C)(Cl)Cl)n2)cc1 (stereo not drawn) [Example 126] | strong activity | 133 | – |
| CC(Nc1nc(N)nc(Cl)n1)c1ccc(Cl)cc1 (stereo not drawn) [drawing 106] | – | – | % damage, Alopecurus [4]: 80%; pest or weed control at 1000 g/ha [5]: 100%; % damage, Maize [10]: 20%; pest or weed control at 1000 g/ha [7]: 90% |
| CCC(Nc1nc(NC(C)=O)nc(C(F)(F)F)n1)c1ccc(Cl)cc1 (stereo not drawn) [Example 90] | strong activity | 116 | – |
| CC(Nc1nc(N)nc(C(C)(C)F)n1)c1ccc(Cl)cc1 (stereo not drawn) [Example 16] | strong activity | – | activity against weeds [2]: strong activity |
| CCc1nc(NC(C)=O)nc(NC(C)c2ccc(Cl)cc2)n1 (stereo not drawn) [Example 173] | strong activity | 182 | – |
| CC(Nc1nc(N)nc(Cl)n1)c1ccc(Cl)cc1 (stereo not drawn) [drawing 107] | – | – | % damage, Abutilon [3]: 100%; % damage, Alopecurus [4]: 100%; % damage, Amaranthus [5]: 100%; % damage, Avena fatua [6]: 100%; % damage, Setaria [7]: 100%; % damage, Sinapis [8]: 100% |
